In patent US5183821A, “Method for treating leukemias using N-(2-dimethylaminoethyl)-3-amino-1,8-naphthalimide for treating leukemias and solid tumors” (priority 1991, dated 1993):
Entries after “also recorded” stand apart in the source; their conditions may differ.

What was measured:
[1] = Blood compatibility testing, canine; details: 50 mg/ml, 1:1
CX-1 colon xenograft = experiment: NCI screen, CX-1 colon xenograft, renal capsule (summary); format: in vivo, human tumor xenograft in athymic mice; details: for Antitumor activity in words: CX-1 colon xenograft
From the text: (§1) The activity of the compound has been evaluated by experiments carried out under the auspices of the Division of Cancer Treatment, National Cancer Institute, employing techniques considered to be reliable indicators of chemotherapeutic utility in the treatment of forms of cancer in human patients. The details of the methodology employed in the reported experiments may be determined with reference to established NCI screening methods.
(§2) In the experiments conducted by the NCI, evaluation of activity is made on the basis of appropriate parameters, such as median survival time (MST) or change in average tumor diameter (CATD)in ocular micrometer units (OMU).

[2] = format: physicochemical
From the text: Stability: The reconstituted solution is stable for 14 days at room temperature. When further diluted 200-fold with normal saline the drug remains stable for 14 days at both room and refrigeration temperatures. The reconstituted solution is not stable when further diluted with 5% dextrose in water so this vehicle will not be used for infusions of the drug. Storage: The intact vials should be stored under refrigeration.
Stability: The reconstituted solution is stable for 14 days at room temperature. When further diluted 200-fold with normal saline the drugs remains stable for 14 days at both room and refrigeration temperatures. The reconstituted solution is not stable when further diluted with 5% dextrose in water so this vehicle will not be used for infusions of the drug. Storage: The intact vials should be stored under refrigeration.

Colon 38 = experiment: Experiment 14: Colon 38 s.c., saline with Tween-80, female; format: in vivo, Mouse B6 D2 F1 (BDF1)
From the text: Host: Mouse B6 D2 F1 (BDF1)
Inoculum Site: Subcutaneous
(§3) Vehicle: Saline with Tween-80
Treatment schedule (relative to tumor inoculation day): Days 2 and 9
Day of evaluation (relative to tumor inoculation day): 20
Parameter: Median tumor weight (MTW) estimated from tumor diameter
NCI minimal activity criteria: Percent T/C≤42
(§4) Percent T/C: Ratio of test (T) evaluation to control (C) evaluation expressed as a percentage

B16 Melanocarcinoma = experiment: Experiment 18: B16 i.p., saline with Tween-80, male; format: in vivo, Mouse B6 C3 F1
From the text: Tumor: B16 Melanocarcinoma
Inoculum Site: Intraperitoneal
Tissue: Homogenate (or brei), tumor
as §3
Treatment schedule (relative to tumor inoculation day): daily on days 1-9
Day of evaluation (relative to tumor inoculation day): 60
Parameter: Median survival time (MST) in days
NCI minimal activity criteria: Percent T/C≥125
as §4

LX-1 lung xenograft = experiment: NCI screen, LX-1 lung xenograft, renal capsule (summary); format: in vivo, human tumor xenograft in athymic mice; details: for Antitumor activity in words: LX-1 lung xenograft
From the text: as §1, §2

leukemia P388 = experiment: NCI studies against leukemia P388 (Appendix 1, MDA and T/C); format: in vivo, murine
From the text: On the other hand, murine transplantable leukemias are a good predictor of anti-leukemia activity in human beings (Kenis "Dose schedules and mode of administration of chemotherapeutic agents in man". Recent Results Cancer Res. 21, 54-61 (1969). Only those tests which use the survival times as an activity parameter are valid as predictors of antileukemia activity in human beings (for instance, leukemia p388 y L-1210), whilst "in vitro" tests (HeLa cells and other) are inappropriate (Llombart-Rodriguez, 1983). NCI data generated in the last years confirm the value of above assertions to compounds of general formula [drawing 1] as described in U.S. Pat. No. 4,204,063.
Experimental results from NCI studies against leukemia P388 are shown in an appendix (Appendix 1). In order to simplify the presentation of results we have extracted from these the minor active dose (MDA) against leukemia P388--for each compound. MDA is defined as the minor dose of the drug that reaches the minimal activity criteria of the NCI. For leukemia P388 this criteria on the basis of survival time is a minimal increase in survival of treated animals over a control resulting in a T/C≥120. In the following table the MDA for 14 examples are presented. In cases where none of the tested doses reached the MDA, the MDA is indicated as "NONE". The column "cytotoxic activity" has been extracted from U.S. Pat. No. 4,204,063. Data are presented in order of the highest to lowest cytotoxic activity.

[3] = Single dose (X1) mouse range-finding and lethality study; format: in vivo, CD2 F1 mice; details: mouse, in vivo, iv
Description: (§5) A preclinical toxicology study of benzisoquinolinedione (NSC-308847) was done at Springborn Institute for Bioresearch, Inc. using CD2 F1 mice, Fischer 344 rats and beagle dogs. Animals were injected intravenously on a single dose (X1) or five daily dose (X5) regimen. Bulk drug was titrated with 0.5N HCl to form a salt solution of benzisoquinolinedione at a pH of 5.0-6.5. Sterile 0.9% saline was used for diluting the dosing solutions and was used for the vehicle control animals.
(§6) All mortality and toxic signs occurred on day 1 in both the X1 range-finding and lethality studies.
(§7) Defined Doses for the Single Dose Mouse Lethality

CD2 F1 mice = experiment: as above; format: in vivo
Description: as §5, §6, §7

[4] = change in average tumor diameter, 4 tests, full wrapped cell: Activity not confirmed

CN(C)CCN1C(=O)c2cccc3cc(N)cc(c23)C1=O [Example 9, 1H-Benz[de]isoquinoline-1,3(2H)-dione, 5-amino-2-[2-(dimethylamino)ethyl]]
blood compatibility ([1]; canine heparinized plasma): compatibility
blood compatibility ([1]; canine serum): compatibility
Antitumor activity in words (CX-1 colon xenograft; listed as BIDA): No activity was seen
Antitumor activity in words (CX-1 colon xenograft; listed as the compound): not active
Table II evaluation (CX-1 colon xenograft; [4]): Activity not
stability of reconstituted solution [2]: 14 days
stability, diluted 200-fold with normal saline [2]: 14 days
stability, diluted with 5% dextrose in water [2]: not stable
Median tumor weight (MTW) (Colon 38; 2.00 mg/kg i.p.): 2141
Percent T/C (Colon 38; 2.00 mg/kg i.p.): 111%
Median tumor weight (MTW) (Colon 38; 4.00 mg/kg i.p.): 1872
Percent T/C (Colon 38; 4.00 mg/kg i.p.): 97%
Median tumor weight (MTW) (Colon 38; 8.00 mg/kg i.p.): 1687
Percent T/C (Colon 38; 8.00 mg/kg i.p.): 87%
Median tumor weight (MTW) (Colon 38; 16.00 mg/kg i.p.): 2748
Percent T/C (Colon 38; 16.00 mg/kg i.p.): 142%
Median tumor weight (MTW) (Colon 38; 32.00 mg/kg i.p.): 1013
Percent T/C (Colon 38; 32.00 mg/kg i.p.): 52%
Median tumor weight (MTW) (Colon 38; 64.00 mg/kg i.p.): 1132
Percent T/C (Colon 38; 64.00 mg/kg i.p.): 58%
Median survival time (MST) (B16 Melanocarcinoma; 4.00 mg/kg i.p.): 22.0 days
Percent T/C (B16 Melanocarcinoma; 4.00 mg/kg i.p.): 113%
Median survival time (MST) (B16 Melanocarcinoma; 8.00 mg/kg i.p.): 23.2 days
Percent T/C (B16 Melanocarcinoma; 8.00 mg/kg i.p.): 120%
Median survival time (MST) (B16 Melanocarcinoma; 16.00 mg/kg i.p.): 27.0 days
Percent T/C (B16 Melanocarcinoma; 16.00 mg/kg i.p.): 139%
Median survival time (MST) (B16 Melanocarcinoma; 32.00 mg/kg i.p.): 6.3 days
Antitumor activity in words (LX-1 lung xenograft; listed as BIDA): No activity was seen
Antitumor activity in words (LX-1 lung xenograft; listed as the compound): not active
Table II evaluation (LX-1 lung xenograft; [4]): Activity not
response vs control in vivo at 2 mg/kg (leukemia P388; Mus musculus, P388, read-out: T/C %, dose 2,00 mg/kg): 137%
response vs control in vivo at 4 mg/kg (leukemia P388; Mus musculus, P388, read-out: T/C %, dose 4,00 mg/kg): 142%
response vs control in vivo at 32 mg/kg (leukemia P388; Mus musculus, P388, read-out: T/C %, dose 32,00 mg/kg): < 100%
response vs control in vivo at 65 mg/kg (leukemia P388; Mus musculus, P388, read-out: T/C %, dose 65,00 mg/kg): < 100%
minimal effective dose (leukemia P388; Mus musculus, P388, minor active dose reaching T/C≥120): 2 mg/kg
STATUS (activity against leukemia P388) (leukemia P388; at the dose of the same line of the appendix table): T/C > 120 active
LD50 ([3]; combined sexes): 69.1 mg/kg
LD50 ([3]; female): 71.4 mg/kg
LD50 ([3]; male): 67.1 mg/kg
body weight, mice (CD2 F1 mice; X1): Only slight weight loss
time of deaths, mice (CD2 F1 mice; X1): within a few minutes after dosing
toxic signs, mice (CD2 F1 mice; X1, listed as benzisoquinolinedione): labored breathing, struggling and exophthalmus; also recorded: loss of locomotor ability, decreased activity and rough hair coats; also recorded: All surviving animals were normal within a few hours
LD50 (CD2 F1 mice; combined sexes): 207.3 mg/m^2
Slope (lethality) (CD2 F1 mice; combined sexes): 23.1
LD10 (CD2 F1 mice; female): 62.2 mg/kg
LD50 (CD2 F1 mice; female): 214.2 mg/m^2
Slope (lethality) (CD2 F1 mice; female): 21.2
LD50 (CD2 F1 mice; male): 201.3 mg/m^2
Slope (lethality) (CD2 F1 mice; male): 26.0
